Assay [1] concerns the target T1, PTPN1 (i.e., PTP1B) (Homo sapiens, UniProt P18031).
T1 sequence (P18031 1-435): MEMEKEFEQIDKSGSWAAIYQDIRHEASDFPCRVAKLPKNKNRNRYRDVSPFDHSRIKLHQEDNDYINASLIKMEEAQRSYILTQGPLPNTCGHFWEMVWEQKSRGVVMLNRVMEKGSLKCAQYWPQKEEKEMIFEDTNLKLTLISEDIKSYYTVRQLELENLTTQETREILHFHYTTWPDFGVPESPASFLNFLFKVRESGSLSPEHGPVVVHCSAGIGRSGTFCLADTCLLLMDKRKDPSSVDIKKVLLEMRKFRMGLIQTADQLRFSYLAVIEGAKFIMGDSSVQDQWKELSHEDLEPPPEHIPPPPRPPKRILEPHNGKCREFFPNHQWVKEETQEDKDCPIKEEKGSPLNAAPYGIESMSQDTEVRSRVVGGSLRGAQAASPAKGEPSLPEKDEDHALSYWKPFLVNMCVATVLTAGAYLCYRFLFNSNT
Kind of assay: Phosphatase activity assay (DiFMUP substrate), PTP1B. The assay is classed as biochemical. The following applies: compounds binned ≤1 uM or >1 uM. In outline:
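Read-out is continuous fluorescence of DiFMU (360 nm excitation, 450 nm emission) over about 15-30 minutes, with DiFMUP substrate at the enzyme's independently determined Km (PTPN2 approx. 45 μM final). Buffer: 50 mM HEPES pH 7.5, 150 mM NaCl, 0.5 mM EDTA, 1 mM DTT, 0.001% Tween-20, room temperature; initial rates versus 10-point dilution fitted for IC50, at least duplicate.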

Assay [2] addresses T2, PTPN2 (i.e., TC-PTP) (Homo sapiens, UniProt P17706).
T2 sequence (P17706 1-415): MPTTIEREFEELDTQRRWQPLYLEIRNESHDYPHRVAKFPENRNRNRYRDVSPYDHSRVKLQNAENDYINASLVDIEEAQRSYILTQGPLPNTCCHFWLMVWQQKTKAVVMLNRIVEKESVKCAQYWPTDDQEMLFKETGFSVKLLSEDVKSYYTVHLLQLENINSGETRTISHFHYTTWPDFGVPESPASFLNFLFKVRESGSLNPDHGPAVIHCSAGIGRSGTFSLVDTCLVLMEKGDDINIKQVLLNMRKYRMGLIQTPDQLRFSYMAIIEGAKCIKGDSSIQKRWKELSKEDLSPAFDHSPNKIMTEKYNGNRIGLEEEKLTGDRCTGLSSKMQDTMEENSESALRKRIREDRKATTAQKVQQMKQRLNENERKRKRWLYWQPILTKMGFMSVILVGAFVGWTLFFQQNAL
Kind of assay: Phosphatase activity assay (DiFMUP substrate), PTPN2. Conditions: compounds binned ≤1 uM or >1 uM. The assay is classed as biochemical. In outline: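 RT, HEPES pH 7.5 buffer with DTT/Tween-20. 10-point inhibitor series premixed ~2 min with enzyme (PTPN2 0.025 ng/ul). Start with DiFMUP at enzyme Km (~45 μM for PTPN2). Read DiFMU ex360/em450 continuously 15–30 min; initial rate vs concentration, 4-parameter fit → IC50.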

pIC50: −log10 of the molar value. Where only a bound is given, the exact number is not on record here.

From patent US20240398828A1, “HETERO-ATOM CONTAINING COMPOUNDS AND USES THEREOF” (Kumquat Biosciences Inc., priority 2021, published 2024) come the findings set out here.

In the case of `CC(F)(F)n1cc(-c2ccc(O)c(N3CC(=O)NS3(=O)=O)c2F)cn1` [Compound 516, 5-(3-(1-(1,1-difluoroethyl)-1H-pyrazol-4-yl)-2-fluoro-6-hydroxyphenyl)-1,2,5-thiadiazolidin-3-one 1,1-dioxide], the pIC50 in assay [1] and in assay [2] was not below 6.00 each time.
As to `NC(=O)C1(c2cc(-c3ccc(O)c(N4CC(=O)NS4(=O)=O)c3F)[nH]n2)CC1` [Compound 517, 1-(5-(3-(1,1-dioxido-4-oxo-1,2,5-thiadiazolidin-2-yl)-2-fluoro-4-hydroxyphenyl)-1H-pyrazol-3-yl)cyclopropane-1-carboxamide], the pIC50 in assay [1] and in assay [2] was not below 6.00 in each case.
In the case of `O=C1CN(c2c(O)ccc(-c3cc(C4CC4)n(C(F)F)n3)c2F)S(=O)(=O)N1` [Compound 518, 5-(3-(5-cyclopropyl-1-(difluoromethyl)-1H-pyrazol-3-yl)-2-fluoro-6-hydroxyphenyl)-1,2,5-thiadiazolidin-3-one 1,1-dioxide], the pIC50 in assay [1] and in assay [2] was not below 6.00 each time.
Turning to `CC1(C)C=C(c2ccc(O)c(N3CC(=O)NS3(=O)=O)c2F)CN1` [Compound 519, 5-(3-(5,5-dimethyl-2,5-dihydro-1H-pyrrol-3-yl)-2-fluoro-6-hydroxyphenyl)-1,2,5-thiadiazolidin-3-one 1,1-dioxide], the pIC50 in assay [1] and in assay [2] was less than 6.00 each time.
On to `NC(=O)Cc1cc(-c2ccc(O)c(N3CC(=O)NS3(=O)=O)c2F)[nH]n1` [Compound 520, 2-(5-(3-(1,1-dioxido-4-oxo-1,2,5-thiadiazolidin-2-yl)-2-fluoro-4-hydroxyphenyl)-1H-pyrazol-3-yl)acetamide], for which the negative-log IC50 (pIC50) in assay [1] and in assay [2] was not below 6.00 in each case.
As to `O=C1CN(c2c(O)ccc(C3=CCN(CC(F)F)C3)c2F)S(=O)(=O)N1` [Compound 521, 5-(3-(1-(2,2-difluoroethyl)-2,5-dihydro-1H-pyrrol-3-yl)-2-fluoro-6-hydroxyphenyl)-1,2,5-thiadiazolidin-3-one 1,1-dioxide], the negative-log IC50 (pIC50) in assay [1] and in assay [2] was not below 6.00 in each case.
In the case of `O=C1CN(c2c(O)ccc(C3=CC(CC4CC4)NC3)c2F)S(=O)(=O)N1` (stereo not drawn) [Compound 522, 5-(3-(5-(cyclopropylmethyl)-2,5-dihydro-1H-pyrrol-3-yl)-2-fluoro-6-hydroxyphenyl)-1,2,5-thiadiazolidin-3-one 1,1-dioxide], the pIC50 in assay [1] and in assay [2] was not below 6.00 throughout.
With `CCCCC1C=C(c2ccc(O)c(N3CC(=O)NS3(=O)=O)c2F)CN1` (stereo not drawn) [Compound 523, 5-(3-(5-butyl-2,5-dihydro-1H-pyrrol-3-yl)-2-fluoro-6-hydroxyphenyl)-1,2,5-thiadiazolidin-3-one 1,1-dioxide], the pIC50 in assay [1] and in assay [2] was not below 6.00 throughout.
For `O=C1CN(c2c(O)ccc(-c3cc(CC(F)F)n[nH]3)c2F)S(=O)(=O)N1` [Compound 524, 5-(3-(3-(2,2-difluoroethyl)-1H-pyrazol-5-yl)-2-fluoro-6-hydroxyphenyl)-1,2,5-thiadiazolidin-3-one 1,1-dioxide], the negative logarithm of the IC50 (pIC50) in assay [1] and in assay [2] was not below 6.00 each time.
For the molecule `O=C1CN(c2c(O)ccc(-c3cnn(CC(F)F)c3)c2F)S(=O)(=O)N1` [Compound 525, 5-(3-(1-(2,2-difluoroethyl)-1H-pyrazol-4-yl)-2-fluoro-6-hydroxyphenyl)-1,2,5-thiadiazolidin-3-one 1,1-dioxide], the pIC50 in assay [1] and in assay [2] was not below 6.00 throughout.
Regarding `O=C1CN(c2c(O)ccc(-c3cc(C4(C(F)F)CC4)n[nH]3)c2F)S(=O)(=O)N1` [Compound 526, 5-(3-(3-(1-(difluoromethyl)cyclopropyl)-1H-pyrazol-5-yl)-2-fluoro-6-hydroxyphenyl)-1,2,5-thiadiazolidin-3-one 1,1-dioxide], the negative-log IC50 (pIC50) in assay [1] and in assay [2] was not below 6.00 each time.
Consider `Cn1cc(-c2ccc(O)c(N3CC(=O)NS3(=O)=O)c2F)nc1O` [Compound 527, 5-(2-fluoro-6-hydroxy-3-(2-hydroxy-1-methyl-1H-imidazol-4-yl)phenyl)-1,2,5-thiadiazolidin-3-one 1,1-dioxide], for which the pIC50 in assay [1] and in assay [2] was not below 6.00 in each case.
For the molecule `Cn1nc(-c2ccc(O)c(N3CC(=O)NS3(=O)=O)c2F)cc1N` [Compound 529, 5-(3-(5-amino-1-methyl-1H-pyrazol-3-yl)-2-fluoro-6-hydroxyphenyl)-1,2,5-thiadiazolidin-3-one 1,1-dioxide], the negative-log IC50 (pIC50) in assay [1] and in assay [2] was not below 6.00 in each case.
Take `O=C1CN(c2c(O)ccc(-c3cn(CCC(F)F)nc3F)c2F)S(=O)(=O)N1` [Compound 530, 5-(3-(1-(3,3-difluoropropyl)-3-fluoro-1H-pyrazol-4-yl)-2-fluoro-6-hydroxyphenyl)-1,2,5-thiadiazolidin-3-one 1,1-dioxide]: the negative-log IC50 (pIC50) in assay [1] and in assay [2] was not below 6.00 each time.
On to `CC(C)CC1C=C(c2ccc(O)c(N3CC(=O)NS3(=O)=O)c2F)CN1` (stereo not drawn) [Compound 531, 5-(2-fluoro-6-hydroxy-3-(5-isobutyl-2,5-dihydro-1H-pyrrol-3-yl)phenyl)-1,2,5-thiadiazolidin-3-one 1,1-dioxide], for which the negative-log IC50 (pIC50) in assay [1] and in assay [2] was not below 6.00 throughout.
As for `CN(C)C(=O)n1cc(-c2ccc(O)c(N3CC(=O)NS3(=O)=O)c2F)cn1` [Compound 532, 4-(3-(1,1-dioxido-4-oxo-1,2,5-thiadiazolidin-2-yl)-2-fluoro-4-hydroxyphenyl)-N,N-dimethyl-1H-pyrazole-1-carboxamide], the pIC50 in assay [1] and in assay [2] was not below 6.00 throughout.
Turning to `NC(=O)C1CC1c1cc(-c2ccc(O)c(N3CC(=O)NS3(=O)=O)c2F)[nH]n1` (stereo not drawn) [Compound 533, 2-(5-(3-(1,1-dioxido-4-oxo-1,2,5-thiadiazolidin-2-yl)-2-fluoro-4-hydroxyphenyl)-1H-pyrazol-3-yl)cyclopropane-1-carboxamide], the negative-log IC50 (pIC50) in assay [1] and in assay [2] was not below 6.00 in each case.
Consider `O=C1CN(c2c(O)ccc(C3=CCN(CCC(F)F)C3)c2F)S(=O)(=O)N1` [Compound 534, 5-(3-(1-(3,3-difluoropropyl)-2,5-dihydro-1H-pyrrol-3-yl)-2-fluoro-6-hydroxyphenyl)-1,2,5-thiadiazolidin-3-one 1,1-dioxide], for which the negative logarithm of the IC50 (pIC50) in assay [1] and in assay [2] was not below 6.00 in each case.
For `N#CNC(=N)N1CCC=C(c2ccc(O)c(N3CC(=O)NS3(=O)=O)c2F)C1` [Compound 535, N-cyano-5-(3-(1,1-dioxido-4-oxo-1,2,5-thiadiazolidin-2-yl)-2-fluoro-4-hydroxyphenyl)-3,6-dihydropyridine-1(2H)-carboximidamide], the negative logarithm of the IC50 (pIC50) in assay [1] and in assay [2] was not below 6.00 in each case.
On to `COC(=O)n1nc(-c2ccc(O)c(N3CC(=O)NS3(=O)=O)c2F)cc1C1CC1` [Compound 536, methyl 5-cyclopropyl-3-(3-(1,1-dioxido-4-oxo-1,2,5-thiadiazolidin-2-yl)-2-fluoro-4-hydroxyphenyl)-1H-pyrazole-1-carboxylate], for which the negative logarithm of the IC50 (pIC50) in assay [1] and in assay [2] was not below 6.00 in each case.
Turning to `O=C1CN(c2c(O)ccc(-c3cnn(C(=O)C4CC4)c3)c2F)S(=O)(=O)N1` [Compound 537, 5-(3-(1-(cyclopropanecarbonyl)-1H-pyrazol-4-yl)-2-fluoro-6-hydroxyphenyl)-1,2,5-thiadiazolidin-3-one 1,1-dioxide], the pIC50 in assay [1] and in assay [2] was not below 6.00 throughout.
With `O=C1CN(c2c(O)ccc(-c3cc(C4CC4(F)F)nn3C(F)F)c2F)S(=O)(=O)N1` (stereo not drawn) [Compound 538, 5-(3-(3-(2,2-difluorocyclopropyl)-1-(difluoromethyl)-1H-pyrazol-5-yl)-2-fluoro-6-hydroxyphenyl)-1,2,5-thiadiazolidin-3-one 1,1-dioxide], the pIC50 in assay [1] and in assay [2] was not below 6.00 in each case.
For the molecule `O=C1CN(c2c(O)ccc(C3=CC(CCC4CC4)NC3)c2F)S(=O)(=O)N1` (stereo not drawn) [Compound 539, 5-(3-(5-(2-cyclopropylethyl)-2,5-dihydro-1H-pyrrol-3-yl)-2-fluoro-6-hydroxyphenyl)-1,2,5-thiadiazolidin-3-one 1,1-dioxide], the pIC50 in assay [1] and in assay [2] was not below 6.00 throughout.
As for `Cn1nc(-c2ccc(O)c(N3CC(=O)NS3(=O)=O)c2F)nc1C1CC1(F)F` (stereo not drawn) [Compound 540, 5-(3-(5-(2,2-difluorocyclopropyl)-1-methyl-1H-1,2,4-triazol-3-yl)-2-fluoro-6-hydroxyphenyl)-1,2,5-thiadiazolidin-3-one 1,1-dioxide], the negative logarithm of the IC50 (pIC50) in assay [1] and in assay [2] was not below 6.00 in each case.
